Measured values reported in ChEMBL document CHEMBL5331048, “Recent progress toward developing axial chirality bioactive compounds” (Eur J Med Chem, 2022).
Values after ≈ are worked out from the molar mass of the structure shown. One block for each molecule: values may come before it.

How the values were obtained:
Staphylococcus aureus [1] = experiment: Antibacterial activity against methicillin-resistant Staphylococcus aureus assessed as bacterial growth inhibition; assay type: functional
HCT-116 = experiment: Anticancer activity against human HCT-116 cells assessed as cell growth inhibition; assay type: functional, cell-based
Streptococcus iniae [2] = experiment: Potency index, ratio of oxytetracycline MIC to test compound MIC for antibacterial activity against Streptococcus iniae FP 5228; assay type: functional
Streptococcus iniae [3] = experiment: Antibacterial activity against Streptococcus iniae FP 5228 assessed as bacterial growth inhibition; assay type: functional
A-375 = experiment: Anticancer activity against human A-375 cells assessed as cell growth inhibition measured after 24 hrs by MTT assay; assay type: functional, cell-based; details: A-375, 24 h
[4] = Anticancer activity against human QGP-1 cells assessed as cell growth inhibition; assay type: functional, cell-based
Caco-2 = experiment: Anticancer activity against human Caco-2 cells assessed as cell growth inhibition measured after 72 hrs by MTT assay; assay type: functional, cell-based; details: Caco-2, 72 h
Staphylococcus aureus [5] = experiment: Antibacterial activity against Staphylococcus aureus ATCC 25923 assessed as bacterial growth inhibition; assay type: functional, organism-based
Bacillus subtilis [6] = experiment: Antibacterial activity against Bacillus subtilis ATCC 6633 assessed as bacterial growth inhibition; assay type: functional, organism-based
Bacillus thuringiensis = experiment: Antibacterial activity against Bacillus thuringiensis SCSIO BT01 assessed as bacterial growth inhibition; assay type: functional
Escherichia coli = experiment: Antibacterial activity against Escherichia coli ATCC 25922 assessed as bacterial growth inhibition; assay type: functional
Staphylococcus aureus [7] = experiment: Antibacterial activity against Staphylococcus aureus ATCC 29213 assessed as bacterial growth inhibition; assay type: functional
Bacillus subtilis [8] = experiment: Antibacterial activity against Bacillus subtilis SCSIO BS01 assessed as bacterial growth inhibition; assay type: functional
Plasmodium berghei [9] = experiment: Antimalarial activity against Plasmodium berghei ANKA assessed as reduction in parasite growth measured after 24 hrs by 3[H]-hypoxanthine incorporation assay; assay type: functional, organism-based
Plasmodium falciparum = experiment: Antimalarial activity against Plasmodium falciparum NF 54 clone A1A9 assessed as reduction in parasite growth measured after 24 hrs by 3[H]-hypoxanthine incorporation assay; assay type: functional, organism-based; details: NF 54 clone A1A9, 24 h
Plasmodium berghei [10] = experiment: Antimalarial activity against Plasmodium berghei assessed as reduction in parasite growth; assay type: functional, organism-based
HGC-27 = experiment: Anticancer activity against human HGC-27 cells assessed as cell growth inhibition measured after 24 hrs by CCK-8 assay; assay type: functional, cell-based; details: HGC-27, 24 h
[11] = Anticancer activity against human Leucocyte assessed as cell break at 2 x 10^-9M measured after 12 hrs; assay type: functional; details: dose 2 10^-9M

Structure (SMILES): O=C(c1ccccc1O)c1[nH]c(Cl)c(Cl)c1-n1c(C(=O)c2ccccc2O)cc(Cl)c1Cl
- MIC90 (Staphylococcus aureus [1]): 0.61 µM (≈ 0.311 µg/mL)
- IC50 (HCT-116): 8.8 µM

Structure (SMILES): COC(=O)C[C@@H]1Cc2cc3c(-c4c(OC)cc(O)c5c(O)c6c(cc45)C[C@@H](CC(=O)OC)OC6=O)c(OC)cc(O)c3c(O)c2C(=O)O1
- Ratio (Streptococcus iniae [2]): 100
- MIC (Streptococcus iniae [3]): 0.31 µg/mL (≈ 0.468 µM)

- IC50 (A-375): 2.57 µM
Structure (SMILES): COc1ccc2ccc(O)c(-c3c(Br)c(C4CC4)nn3P(=O)(c3ccccc3)c3ccccc3)c2c1

Structure (SMILES): O=C(c1ccccc1O)c1[nH]c(Cl)c(Cl)c1-n1c(Cl)c(Cl)c(Br)c1C(=O)c1ccccc1O
- MIC90 (Staphylococcus aureus [1]): 1.1 µM (≈ 0.648 µg/mL)
- IC50 (HCT-116): 9 µM

Structure (SMILES): COC(=O)c1cc(-c2ccc(F)cc2)n(-n2c(C(=O)OC)cc3ccccc32)c1C
- IC50 [4]: 18.7 µg/mL (≈ 46.1 µM)

Structure (SMILES): COC(=O)c1cc(-c2cccc(OC)c2)n(-n2c(-c3ccc4ccccc4c3)cc(C(=O)OC)c2C)c1C
- IC50 [4]: 18.7 µg/mL (≈ 36.8 µM)

- IC50 (Caco-2): 76 µM
Structure (SMILES): O=C1N[C@@H]2[C@H]3NC(=O)[C@@H]4Cc5cc6ccccc6n5-n5cc(c6ccccc65)C[C@@H]1N[C@H]2[C@@H]3N4

Structure (SMILES): COC(=O)c1cc(-c2ccccc2)n(-n2c(-c3ccc4c(c3)OCO4)cc(C(=O)OC)c2C)c1C
- IC50 [4]: 18.7 µg/mL (≈ 39.6 µM)

Structure (SMILES): COC(=O)[C@@]12Oc3cc(C)c(-c4c(C)cc5c(c4O)C(=O)C4C(O)=CC[C@@H](O)[C@]4(C(=O)OC)O5)c(O)c3C(=O)C1=C(O)CC[C@H]2O (stereo in doubt; 4)
- IC50 (Staphylococcus aureus [5]): 6 µM
- IC50 (Bacillus subtilis [6]): 2.1 µM

Structure (SMILES): COC(=O)[C@@]12Oc3cc(C)c(-c4c(C)cc5c(c4O)C(=O)C4C(O)=CC[C@@H](O)[C@]4(C(=O)OC)O5)c(O)c3C(=O)C1=C(O)CC[C@H]2O (stereo in doubt; 5)
- IC50 (Staphylococcus aureus [5]): 18 µM
- IC50 (Bacillus subtilis [6]): 0.7 µM

- MIC (Bacillus thuringiensis; Bacillus thuringiensis, SCSIO BT01, read-out: MIC): 4 µg/mL (≈ 5.52 µM)
- MIC (Escherichia coli; Escherichia coli, ATCC 25922, read-out: MIC): 8 µg/mL (≈ 11 µM)
- MIC (Staphylococcus aureus [7]; Staphylococcus aureus, ATCC 29213, read-out: MIC): 8 µg/mL (≈ 11 µM)
- MIC (Bacillus subtilis [8]; Bacillus subtilis, SCSIO BS01, read-out: MIC): 16 µg/mL (≈ 22.1 µM)
Structure (SMILES): C[C@@]1(C(=O)O)[C@@H](O)CC[C@]2(C)c3cc4c5ccccc5n(-n5c6ccccc6c6cc7c(cc65)CC[C@H]5[C@](C)(C(=O)O)[C@@H](O)CC[C@]75C)c4cc3CC[C@@H]12 (stereo in doubt; 66)

- MIC (Bacillus thuringiensis): 8 µg/mL (≈ 11 µM)
- MIC (Escherichia coli): 8 µg/mL (≈ 11 µM)
- MIC (Staphylococcus aureus [7]): 16 µg/mL (≈ 22.1 µM)
- MIC (Bacillus subtilis [8]): 16 µg/mL (≈ 22.1 µM)
Structure (SMILES): C[C@@]1(C(=O)O)[C@@H](O)CC[C@]2(C)c3cc4c5ccccc5n(-n5c6ccccc6c6cc7c(cc65)CC[C@H]5[C@](C)(C(=O)O)[C@@H](O)CC[C@]75C)c4cc3CC[C@@H]12 (stereo in doubt; 67)

Structure (SMILES): COc1cc(C)c(-c2ccc(O)c3c2C[C@@H](C)N[C@@H]3C)c2cccc(O)c12 [DIONCOPHYLLINE C]
- IC50 (Plasmodium berghei [9]): 0.015 µg/mL (≈ 0.0413 µM)
- IC50 (Plasmodium falciparum): 0.014 µg/mL (≈ 0.0385 µM)

Structure (SMILES): COc1cc(C)cc2c(-c3c(O)cc(O)c4c3C[C@@H](C)N[C@@H]4C)ccc(O)c12 [KORUPENSAMINE A]
- IC50 (Plasmodium berghei [10]): 0.56 µg/mL (≈ 1.48 µM)

- MIC (Streptococcus iniae [3]): 40 µg/mL (≈ 86.9 µM)
Structure (SMILES): CN(C)[C@@H]1C(O)=C(C(N)=O)C(=O)[C@@]2(O)C(O)=C3C(=O)c4c(O)cccc4[C@@](C)(O)[C@H]3[C@H](O)[C@@H]12 [OXYTETRACYCLINE]

Structure (SMILES): c1ccc(C(OCCN2CCCCC2)c2ccccc2)cc1 [PERASTINE]
- IC50 (HGC-27): 14.4 µM

Structure (SMILES): COC1=C(N)C(=O)c2nc(-c3nc(C(=O)O)c(C)c(-c4ccc(OC)c(OC)c4O)c3N)ccc2C1=O [STREPTONIGRIN]
- Activity [11]: 2.82
